Structures can show the parent of a compound that is named as a salt. Where two headings read alike, the source gives them in different places.
Assays:
[1] = target: T1, PKC epsilon (Homo sapiens, UniProt Q02156); test: Biochemical assay for PKC epsilon (fluorescence polarization, Protein Kinase C Assay Kit, Red); conditions: read-out: IC50 μM PKCε
T1 construct: purchased Invitrogen P2282
T1 sequence (Q02156 1-737): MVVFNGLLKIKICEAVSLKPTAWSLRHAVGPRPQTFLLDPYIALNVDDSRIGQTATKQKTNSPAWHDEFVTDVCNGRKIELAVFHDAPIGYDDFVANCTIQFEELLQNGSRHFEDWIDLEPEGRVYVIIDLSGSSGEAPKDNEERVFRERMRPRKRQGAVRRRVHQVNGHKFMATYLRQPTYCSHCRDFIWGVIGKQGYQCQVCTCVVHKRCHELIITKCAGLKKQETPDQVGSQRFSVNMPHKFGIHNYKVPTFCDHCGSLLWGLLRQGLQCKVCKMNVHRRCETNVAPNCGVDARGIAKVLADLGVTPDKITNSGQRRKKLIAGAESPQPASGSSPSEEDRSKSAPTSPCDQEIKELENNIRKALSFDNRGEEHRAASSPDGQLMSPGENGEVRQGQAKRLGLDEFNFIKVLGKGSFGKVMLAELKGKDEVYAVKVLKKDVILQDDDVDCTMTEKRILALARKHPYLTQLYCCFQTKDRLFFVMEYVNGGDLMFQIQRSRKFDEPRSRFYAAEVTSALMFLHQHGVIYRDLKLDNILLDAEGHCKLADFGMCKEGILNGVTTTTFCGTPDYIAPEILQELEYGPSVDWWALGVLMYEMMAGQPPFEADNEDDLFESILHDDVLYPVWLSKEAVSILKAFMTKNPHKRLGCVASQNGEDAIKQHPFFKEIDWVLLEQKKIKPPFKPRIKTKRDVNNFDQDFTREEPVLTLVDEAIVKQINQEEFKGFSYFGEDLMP
Outline: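 Read-out was fluorescence-polarization competition between phosphorylated substrate and a rhodamine PKC tracer for an anti-phosphoserine antibody, added with EDTA stop after an 80 min room-temperature kinase reaction with ATP and protein substrate (Mg2+/Ca2+ buffer). Enzyme (10 ng/ml final) was preincubated with compound for 30 min.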

[2] = target: T2, human ROCKα/ROCKII mix (Homo sapiens, UniProt O75116); test: Biochemical assay for ROCK (fluorescence polarization, ROCK IMAP Kit)
T2 construct: purchased Upstate Biotechnology 14-451
Method: The compounds were tested for inhibition of human ROCKα/ROCKII mix.
The inhibition assays were performed with a fluorescence polarization (FP) assay using the commercially available ROCK IMAP Kit from Molecular Devices (Product ID. No. R8093), essentially in accordance with the protocol supplied by the manufacturer. […] The enzyme mix ROCKα/ROCKII was obtained from Upstate Biotechnology (Product ID No 14-451).
In summary, the compound was screened in the wells of a 384 well plate for enzymatic inhibition with concentrations varying from 100 μM to 0.3 nM using a stepwise 3 (or 2)-fold dilution.
To perform the assay, 1 μl of a solution of the compound to be tested in DMSO (at each concentration) was added to 2 μl of a solution of the enzyme in 10 mM Tris-HCl , 10 mM MgCl2, 0.1% BSA, 0.05% NaN3, pH 7.2. The final concentration of the enzyme was 2.6 nM.
After incubating for 30 minutes at room temperature, 2 μl of a mixture of ATP and the protein substrate in 10 mM Tris-HCl, 10 mM MgCl2, 0.1% BSA, 0.05% NaN3, pH 7.2 was added. The final concentration of the ATP was 10 μM and final concentration of protein substrate was 0.2 μM.
After incubating for 60 minutes at room temperature, 12 μl of the IMAP Binding Solution (mix of the IMAP Binding Buffer A (1×) and the IMAP Binding Reagent (from the ROCK IMAP kit)) was added.
The mixture thus obtained (total volume: 17 μl) was incubated for 60 minutes at room temperature, upon which the fluorescence polarization was measured using an automated plate reader (Perkin Elmer, Model Envision 2100-0010 HTS) with FP filters: excitation filter FITC FP 480 and emission filters FITC FP P-pol 535 and FITC FP S-pol 535 (Perkin-Elmer). The results were fitted to a curve using the XL-Fit algorithm and IC50 values were calculated for each fitted curve, again using the XL-Fit algorithm.

[3] = compounds of Formula XIV, Table 3
[4] = Table 2, compounds of Formula XIII

T2 sequence (O75116 11-552 limits assumed): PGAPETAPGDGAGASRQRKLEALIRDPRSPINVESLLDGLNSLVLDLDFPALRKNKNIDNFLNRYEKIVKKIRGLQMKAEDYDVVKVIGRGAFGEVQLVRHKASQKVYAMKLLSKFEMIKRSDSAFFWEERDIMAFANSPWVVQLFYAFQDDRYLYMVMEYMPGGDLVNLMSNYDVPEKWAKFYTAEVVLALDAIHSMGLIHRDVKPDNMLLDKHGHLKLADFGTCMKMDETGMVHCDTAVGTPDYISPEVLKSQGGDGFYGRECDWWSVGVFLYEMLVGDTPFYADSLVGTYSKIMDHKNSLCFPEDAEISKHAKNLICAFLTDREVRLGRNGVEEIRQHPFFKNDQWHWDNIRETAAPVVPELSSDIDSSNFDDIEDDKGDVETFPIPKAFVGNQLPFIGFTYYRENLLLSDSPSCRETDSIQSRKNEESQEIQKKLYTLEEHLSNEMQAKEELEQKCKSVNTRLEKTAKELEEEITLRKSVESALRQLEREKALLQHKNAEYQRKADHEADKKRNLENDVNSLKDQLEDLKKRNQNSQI

| Molecule | IC50 [1, 3] [µM] | IC50 [2, 3] [µM] | IC50 [1] [µM] | IC50 [2] [µM] | also measured |
| --- | --- | --- | --- | --- | --- |
| 4-[1-amino-2-(4-methyl- cyclohexylcarbamoyl)-ethyl]- N-pyridin-4-yl-benzamide [Compound 173] | 0.5 to 5 | 0.05 to 0.5 | – | – | – |
| 4-[1-amino-2-(N′-butyl- hydrazinocarbonyl)-ethyl]-N- pyridin-4-yl-benzamide [Compound 324] | 0.5 to 5 | 0.05 to 0.5 | – | – | – |
| 4-[1-amino-2-(cyclopropyl- methylcarbamoyl)-ethyl]-N- pyridin-4-yl-benzamide [Compound 171] | 0.5 to 5 | 0.05 to 0.5 | – | – | – |
| 4-{1-Amino-2- [(benzo[1,3]dioxol-5- ylmethyl)-carbamoyl]-ethyl}- N-pyridin-4-yl-benzamide [Compound 245] | 0.5 to 5 | 0.05 to 0.5 | – | – | – |
| 4-{1-Amino-2-[2-(9H-fluoren- 2-yl)-ethylcarbamoyl]-ethyl}- N-pyridin-4-yl-benzamide [Compound 318] | 5 to 50 | 0.05 to 0.5 | – | – | – |
| 4-{1-Amino-2-[(2-1H-indol-3- yl-acetyl)-methyl- amino]-ethyl}- N-pyridin-4-yl-benzamide [Compound 443] | – | – | 5 to 50 | 0.5 to 5 | – |
| 4-{1-Amino-2-[(2- benzo[1,3]dioxol-5-yl- acetyl)-methyl-amino]-ethyl}- N-pyridin-4-yl-benzamide [Compound 432] | – | – | 5 to 50 | 0.5 to 5 | – |
| 4-{1-Amino-2-[(2- benzo[b]thiophen-3-yl- acetyl)-methyl- amino]-ethyl}- N-pyridin-4-yl-benzamide [Compound 444] | – | – | 5 to 50 | 0.5 to 5 | – |
| 4-{1-Amino-2-[(2- cyclopentyl-2-phenyl- acetyl)-methyl- amino]-ethyl}- N-pyridin-4-yl-benzamide [Compound 455] | – | – | 5 to 50 | 5 to 50 | – |
| 4-{1-Amino-2-[(2-biphenyl-4- yl-acetyl)-methyl- amino]-ethyl}- N-pyridin-4-yl-benzamide [Compound 436] | – | – | 5 to 50 | 0.5 to 5 | – |
| 4-{1-Amino-2-[(3-methyl- cyclohexanecarbonyl)-amino]-ethyl}- N-pyridin-4-yl-benzamide [Compound 45] | – | – | – | – | IC50 [1, 4]: 0.5 to 5 µM; IC50 [2, 4]: 0.5 to 5 µM |
| 4-{1-Amino-2-[(4-methoxy- cyclohexanecarbonyl)-amino]-ethyl}- N-pyridin-4-yl-benzamide [Compound 44] | – | – | – | – | IC50 [1, 4]: 5 to 50 µM; IC50 [2, 4]: 0.5 to 5 µM |
| 4-{1-Amino-2-[(furan-2- ylmethyl)-carbamoyl]-ethyl}- N-pyridin-4-yl-benzamide [Compound 278] | 0.5 to 5 | 0.05 to 0.5 | – | – | – |
| 4-{1-Amino-2-[(pyridin-2- ylmethyl)-carbamoyl]-ethyl}- N-pyridin-4-yl-benzamide [Compound 277] | 0.5 to 5 | 0.05 to 0.5 | – | – | – |
| 4-{1-Amino-2-[(pyridin-4- ylmethyl)-carbamoyl]-ethyl}- N-pyridin-4-yl-benzamide [Compound 276] | 0.5 to 5 | 0.05 to 0.5 | – | – | – |
| 4-{1-Amino-2-[(thiophen-2- ylmethyl)-carbamoyl]-ethyl}- N-pyridin-4-yl-benzamide [Compound 279] | 0.5 to 5 | 0.05 to 0.5 | – | – | – |
| 4-{1-Amino-2-[ethyl-(4-nitro- benzyl}-carbamoyl]-ethyl)-N- pyridin-4-yl-benzamide [Compound 274] | 0.5 to 5 | 0.05 to 0.5 | – | – | – |

| Molecule | IC50 [1, 3] [µM] | IC50 [2, 3] [µM] | IC50 [1] [µM] | IC50 [2] [µM] | also measured |
| --- | --- | --- | --- | --- | --- |
| 4-{1-Amino-2-[methyl-(1- phenyl- cyclopropanecarbonyl)- amino]-ethyl}- N-pyridin-4-yl-benzamide [Compound 452] | – | – | 5 to 50 | 0.5 to 5 | – |
| 4-{1-Amino-2-[methyl-(1- thiophen-2-yl- cyclopropanecarbonyl)- amino]-ethyl}- N-pyridin-4-yl-benzamide [Compound 448] | – | – | 5 to 50 | 0.5 to 5 | – |
| 4-{1-Amino-2-[methyl-(1- thiophen-3-yl- cyclopropanecarbonyl)- amino]-ethyl}- N-pyridin-4-yl-benzamide [Compound 450] | – | – | 5 to 50 | 0.5 to 5 | – |
| 4-{1-Amino-2-[methyl-(2- methyl-2-thiophen-2-yl- propionyl)- amino]-ethyl}- N-pyridin-4-yl-benzamide [Compound 447] | – | – | 0.5 to 5 | 0.5 to 5 | – |
| 4-{1-Amino-2-[methyl-(2- methyl-2-thiophen-3-yl- propionyl)- amino]-ethyl}- N-pyridin-4-yl-benzamide [Compound 449] | – | – | 5 to 50 | 0.5 to 5 | – |
| 4-{1-Amino-2-[methyl-(2- naphthalen-1-yl-acetyl)- amino]-ethyl}- N-pyridin-4-yl-benzamide [Compound 435] | – | – | 5 to 50 | 0.5 to 5 | – |
| 4-{1-Amino-2-[methyl-(2- naphthalen-2-yl-acetyl)- amino]-ethyl}- N-pyridin-4-yl-benzamide [Compound 434] | – | – | 0.5 to 5 | 0.05 to 0.5 | – |
| 4-{1-amino-2-[2-(4- trifluoromethyl-phenyl)- ethylcarbamoyl]-ethyl}-N- pyridin-4-yl-benzamide [Compound 309] | 0.5 to 5 | 0.05 to 0.5 | – | – | – |
| 4-{1-amino-2-[2-(4-bromo-2- methoxy-phenyl)- ethylcarbamoyl]-ethyl}-N- pyridin-4-yl-benzamide [Compound 310] | 0.5 to 5 | 0.05 to 0.5 | – | – | – |
| 4-{1-amino-2-[2-(4-methy)- octanoylamino]-ethyl}-N-pyridin-4-yl- benzamide [Compound 37] | – | – | – | – | IC50 [1, 4]: 0.5 to 5 µM; IC50 [2, 4]: 0.05 to 0.5 µM |
| 4-{Amino-[1-(2-1H-indol-3-yl-acetyl)-pyrrolidin-2-yl]-methyl}-N-pyridin-4-yl-benzamide [Compound 545] | – | – | 0.5 to 5 | 0.05 to 0.5 | – |
| N[C@H](CC(=O)NC1COc2ccccc21)c1ccc(C(=O)Nc2ccncc2)cc1 (mixture of isomers) [Compound 403, 4-[(R)-1-Amino-2-(2,3-dihydro-benzofuran-3-ylcarbamoyl)-ethyl]-N-pyridin-4-yl-benzamide dihydrochloric acid salt] | – | – | < 0.05 | < 0.05 | – |
| N[C@@H](CC(=O)NC1COc2ccccc21)c1ccc(C(=O)Nc2ccncc2)cc1 (mixture of isomers) [Compound 404, 4-[(S)-1-Amino-2-(2,3-dihydro-benzofuran-3-ylcarbamoyl)-ethyl]-N-pyridin-4-yl-benzamide dihydrochloric acid salt] | – | – | 0.5 to 5 | 0.05 to 0.5 | – |
| CC(C)(C)ON=Cc1cccc(C(=O)NCC(N)c2ccc(C(=O)Nc3ccncc3)cc2)c1 (racemic) [Compound 101, 4-{1-amino-2-[(3-tert-butoxyimino-methyl)-benzoylamino]-ethyl}-N-pyridin-4-yl-benzamide] | – | – | – | – | IC50 [1, 4]: 0.5 to 5 µM; IC50 [2, 4]: 0.5 to 5 µM |
| CC(C)(C)ON=Cc1ccc(C(=O)NCC(N)c2ccc(C(=O)Nc3ccncc3)cc2)cc1 (racemic) [Compound 102, 4-{1-amino-2-[(4-tert-butoxyimino-methyl)-benzoylamino]-ethyl}-N-pyridin-4-yl-benzamide] | – | – | – | – | IC50 [1, 4]: 5 to 50 µM; IC50 [2, 4]: 0.5 to 5 µM |
| NC(CC(=O)NC1CCCc2ccccc21)c1ccc(C(=O)Nc2ccncc2)cc1 (single isomer, unassigned) [Compound 221] | 0.05 to 0.5 | 0.05 to 0.5 | – | – | – |

Source: US20100168102A9, “Amide Derivatives as Kinase Inhibitors” (Devgen NV, priority 2005, published 2010)
